Results taken from ChEMBL document CHEMBL1201862, “PubChem BioAssay data set” (2004).
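How tested: cells in 96-well plates exposed to compound for 48 hours at five concentrations. Here, GI50 denotes the concentration required for 50% inhibition of growth.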 Active and inactive are the calls of the source. Cut-off read from the data, not from the text of the source: active = GI50 up to about 1.1 µM and inactive = higher.

What was measured:
Assay in all cases: growth of human tumour cells (NCI), 48 h
K562 = test system: K562
RPMI-8226 = test system: RPMI-8226
M14 = test system: M14
PC-3 = test system: PC-3
BT-549 = test system: BT-549
MCF7 = test system: MCF7
SNB-19 = test system: SNB-19
EKVX = test system: EKVX
HCT-116 = test system: HCT-116
SN12C = test system: SN12C
UACC-62 = test system: UACC-62
NCI-H460 = test system: NCI-H460
LOX IMVI = test system: LOX IMVI
DU-145 = test system: DU-145
OVCAR-4 = test system: OVCAR-4
TK-10 = test system: TK-10
MDA-N = test system: MDA-N
OVCAR-8 = test system: OVCAR-8
CCRF-CEM = test system: CCRF-CEM
HL-60 = test system: HL-60

SMILES | GI50 (K562) | GI50 (RPMI-8226) | GI50 (M14) | GI50 (PC-3) | GI50 (BT-549) | GI50 (MCF7) | GI50 (SNB-19) | GI50 (EKVX) | GI50 (HCT-116) | GI50 (SN12C) | GI50 (UACC-62) | GI50 (NCI-H460) | GI50 (LOX IMVI) | GI50 (DU-145) | GI50 (OVCAR-4) | GI50 (TK-10) | GI50 (MDA-N) | GI50 (OVCAR-8) | GI50 (CCRF-CEM) | GI50 (HL-60)
CCc1ccccc1NC(=O)/C=C/c1ccccc1 | > 100 µM (inactive) | > 100 µM (inactive) | > 100 µM (inactive) | > 100 µM (inactive) | > 100 µM (inactive) | > 100 µM (inactive) | > 100 µM (inactive) | > 100 µM (inactive) | > 100 µM (inactive) | > 100 µM (inactive) | > 100 µM (inactive) | > 100 µM (inactive) | > 100 µM (inactive) | > 100 µM (inactive) | > 100 µM (inactive) | > 100 µM (inactive) | > 100 µM (inactive) | > 100 µM (inactive) | > 100 µM (inactive) | –
COC(=O)/C=C/c1cc2c(cc1-c1c(C(=O)O)cc(OC)c(OC)c1OC)OCO2 | > 10 µM (inactive) | > 10 µM (inactive) | > 10 µM (inactive) | > 10 µM (inactive) | > 10 µM (inactive) | > 10 µM (inactive) | > 10 µM (inactive) | – | > 10 µM (inactive) | > 10 µM (inactive) | > 10 µM (inactive) | – | > 10 µM (inactive) | > 10 µM (inactive) | > 10 µM (inactive) | > 10 µM (inactive) | > 10 µM (inactive) | > 10 µM (inactive) | > 10 µM (inactive) | > 10 µM (inactive)
CN1CN(c2ccccc2)C2(CCN(CCC3COc4ccccc4O3)CC2)C1=O (stereo not drawn) | 20.1 µM (inactive) | 17.8 µM (inactive) | 15.6 µM (inactive) | 27.8 µM (inactive) | 18 µM (inactive) | 5.27 µM (inactive) | 19.9 µM (inactive) | 10.3 µM (inactive) | 5.92 µM (inactive) | 27.7 µM (inactive) | 27.5 µM (inactive) | – | 23 µM (inactive) | 14.9 µM (inactive) | – | 17.7 µM (inactive) | 19.8 µM (inactive) | 32.9 µM (inactive) | 17.9 µM (inactive) | 19.6 µM (inactive)
Cc1cc(C)c2cc(N)c(Cl)nc2n1 | – | > 100 µM (inactive) | > 100 µM (inactive) | > 100 µM (inactive) | > 100 µM (inactive) | > 100 µM (inactive) | > 100 µM (inactive) | > 100 µM (inactive) | > 100 µM (inactive) | > 100 µM (inactive) | > 100 µM (inactive) | 96.4 µM (inactive) | – | > 100 µM (inactive) | – | > 100 µM (inactive) | > 100 µM (inactive) | > 100 µM (inactive) | > 100 µM (inactive) | > 100 µM (inactive)
CC(C)CCCC(=O)CCCCCCC(=O)CCN(O)C(=O)C(N)CO (stereo not drawn) | 28.3 µM (inactive) | 21.7 µM (inactive) | 20.2 µM (inactive) | 12.6 µM (inactive) | 14.7 µM (inactive) | 19.8 µM (inactive) | 22.5 µM (inactive) | 10.6 µM (inactive) | 17.7 µM (inactive) | 16.9 µM (inactive) | 16.7 µM (inactive) | – | 12.2 µM (inactive) | 18.3 µM (inactive) | – | 14.7 µM (inactive) | 21.8 µM (inactive) | 16.9 µM (inactive) | 4.62 µM (inactive) | 20 µM (inactive)
COC1CC(OC2C(C)OC(OC3C(C)OC(OC4C(C)OC(O[C@H]5CC[C@@]6(C)C(=CC[C@]7(O)[C@@H]6C[C@@H](OC(=O)/C=C/c6ccccc6)[C@@]6(C)[C@]7(O)CC[C@@]6(O)C(C)=O)C5)CC4OC)CC3OC)CC2OC)OC(C)C1O (stereo partly drawn) | > 12.5 µM (inactive) | 5.98 µM (inactive) | > 12.5 µM (inactive) | > 12.5 µM (inactive) | > 12.5 µM (inactive) | > 12.5 µM (inactive) | > 12.5 µM (inactive) | > 12.5 µM (inactive) | > 12.5 µM (inactive) | > 12.5 µM (inactive) | > 12.5 µM (inactive) | – | > 12.5 µM (inactive) | > 12.5 µM (inactive) | > 12.5 µM (inactive) | > 12.5 µM (inactive) | > 12.5 µM (inactive) | > 12.5 µM (inactive) | > 12.5 µM (inactive) | 6.75 µM (inactive)
CCOC(=O)CC(C)C(C#N)(OP1(=O)OC(c2ccccc2)C(C)N1C)c1ccccc1 (stereo not drawn) | 32.1 µM (inactive) | 36.3 µM (inactive) | 68.5 µM (inactive) | 33.6 µM (inactive) | 55.1 µM (inactive) | 37.8 µM (inactive) | 99.1 µM (inactive) | 62.2 µM (inactive) | 50.2 µM (inactive) | 58.9 µM (inactive) | 58.7 µM (inactive) | 47.4 µM (inactive) | 55.3 µM (inactive) | 97.5 µM (inactive) | – | 68.7 µM (inactive) | > 100 µM (inactive) | 46.1 µM (inactive) | 29.9 µM (inactive) | 34.9 µM (inactive)
CCOC(=O)c1c(SCc2cc(=O)[nH]c(=O)[nH]2)n(-c2ccccc2)c(=S)n(-c2ccccc2)c1=O | > 100 µM (inactive) | > 100 µM (inactive) | > 100 µM (inactive) | > 100 µM (inactive) | > 100 µM (inactive) | > 100 µM (inactive) | > 100 µM (inactive) | > 100 µM (inactive) | > 100 µM (inactive) | > 100 µM (inactive) | > 100 µM (inactive) | > 100 µM (inactive) | – | > 100 µM (inactive) | – | > 100 µM (inactive) | > 100 µM (inactive) | > 100 µM (inactive) | > 100 µM (inactive) | –
CC(=O)NCCc1c(-c2[nH]c3ccccc3c2CCNC(C)=O)[nH]c2ccccc12 | > 100 µM (inactive) | > 100 µM (inactive) | – | > 100 µM (inactive) | > 100 µM (inactive) | > 100 µM (inactive) | > 100 µM (inactive) | > 100 µM (inactive) | > 100 µM (inactive) | > 100 µM (inactive) | > 100 µM (inactive) | 42.2 µM (inactive) | > 100 µM (inactive) | > 100 µM (inactive) | 49.2 µM (inactive) | 92.7 µM (inactive) | > 100 µM (inactive) | 78.2 µM (inactive) | > 100 µM (inactive) | –
CCOC(=O)CC/C(C)=N\n1c(Cc2ccc(Cl)cc2)n[nH]c1=O | > 100 µM (inactive) | > 100 µM (inactive) | > 100 µM (inactive) | > 100 µM (inactive) | > 100 µM (inactive) | > 100 µM (inactive) | > 100 µM (inactive) | – | > 100 µM (inactive) | > 100 µM (inactive) | > 100 µM (inactive) | 86.1 µM (inactive) | > 100 µM (inactive) | > 100 µM (inactive) | – | > 100 µM (inactive) | > 100 µM (inactive) | > 100 µM (inactive) | – | > 100 µM (inactive)
Cc1cc(=O)nc(S(=O)(=O)NC(=O)Nc2cccc(Cl)c2)[nH]1 | > 100 µM (inactive) | – | > 100 µM (inactive) | > 30.5 µM (inactive) | > 100 µM (inactive) | > 100 µM (inactive) | > 100 µM (inactive) | > 100 µM (inactive) | > 100 µM (inactive) | > 100 µM (inactive) | > 100 µM (inactive) | > 100 µM (inactive) | > 100 µM (inactive) | > 100 µM (inactive) | – | > 100 µM (inactive) | > 100 µM (inactive) | > 100 µM (inactive) | 64.4 µM (inactive) | –
O=C1N/C(=N\C2CCCCC2)C2(CCN(CCCC3(c4ccc(F)cc4)OCCO3)CC2)N1c1ccccc1 | – | 23 µM (inactive) | 19.4 µM (inactive) | 19.3 µM (inactive) | 4.61 µM (inactive) | 21.2 µM (inactive) | 18.5 µM (inactive) | 16.8 µM (inactive) | 12.2 µM (inactive) | 20.4 µM (inactive) | > 10 µM (inactive) | – | 22.8 µM (inactive) | 17 µM (inactive) | 18.5 µM (inactive) | 15.7 µM (inactive) | 15.4 µM (inactive) | 24.8 µM (inactive) | 29 µM (inactive) | 11.7 µM (inactive)
C/C(=N\NC(=S)NC(C)(C)C)c1ccccn1 | < 0.01 µM (active) | < 0.01 µM (active) | < 0.0314 µM (active) | < 0.01 µM (active) | 3.1 µM (inactive) | < 0.01 µM (active) | 4.5 µM (inactive) | – | < 0.01 µM (active) | 0.295 µM (active) | 0.332 µM (active) | – | < 0.01 µM (active) | 1.69 µM (inactive) | 4.1 µM (inactive) | 0.358 µM (active) | 0.131 µM (active) | – | < 0.01 µM (active) | < 0.01 µM (active)
C/C=C/C(O)P1(=O)N(Cc2ccccc2)[C@@H]2CCCC[C@H]2N1Cc1ccccc1 (stereo partly drawn) | > 25 µM (inactive) | – | > 25 µM (inactive) | > 25 µM (inactive) | > 25 µM (inactive) | > 25 µM (inactive) | > 25 µM (inactive) | > 25 µM (inactive) | > 25 µM (inactive) | > 25 µM (inactive) | > 25 µM (inactive) | > 25 µM (inactive) | > 25 µM (inactive) | > 25 µM (inactive) | > 25 µM (inactive) | > 25 µM (inactive) | > 25 µM (inactive) | > 25 µM (inactive) | > 25 µM (inactive) | > 25 µM (inactive)
Fc1ccc2nc3n(c2c1)C(c1c(F)cccc1F)SC3 (stereo not drawn) | – | 60.4 µM (inactive) | 49.1 µM (inactive) | 40.7 µM (inactive) | 70 µM (inactive) | 39.9 µM (inactive) | > 100 µM (inactive) | – | 24.5 µM (inactive) | 77.4 µM (inactive) | 82.4 µM (inactive) | 44 µM (inactive) | 50.7 µM (inactive) | > 100 µM (inactive) | 64.3 µM (inactive) | 96.4 µM (inactive) | 26.7 µM (inactive) | 65.6 µM (inactive) | – | 17.7 µM (inactive)
